Data on 21 molecules can be found in US12617795B2, “Substituted 6,7-dihydro-5H-pyrrolo[3,4-d]pyrimidines, 5,7-dihydrofuro[3,4-d]pyrimidines, and pyrido[2,3-d]pyrimidines as KCC2 modulators” (Astrazeneca AB, priority 2020, dated 2026).

The target of the experiment is T1, KCC2 (Homo sapiens, UniProt Q9H2X9).
T1 construct: expressed in transfected cells; host or cells: HEK293 cells electroporated (Maxcyte STX) with the pcDNA3.1 KCC2 plasmid
T1 sequence (Q9H2X9 1-1139): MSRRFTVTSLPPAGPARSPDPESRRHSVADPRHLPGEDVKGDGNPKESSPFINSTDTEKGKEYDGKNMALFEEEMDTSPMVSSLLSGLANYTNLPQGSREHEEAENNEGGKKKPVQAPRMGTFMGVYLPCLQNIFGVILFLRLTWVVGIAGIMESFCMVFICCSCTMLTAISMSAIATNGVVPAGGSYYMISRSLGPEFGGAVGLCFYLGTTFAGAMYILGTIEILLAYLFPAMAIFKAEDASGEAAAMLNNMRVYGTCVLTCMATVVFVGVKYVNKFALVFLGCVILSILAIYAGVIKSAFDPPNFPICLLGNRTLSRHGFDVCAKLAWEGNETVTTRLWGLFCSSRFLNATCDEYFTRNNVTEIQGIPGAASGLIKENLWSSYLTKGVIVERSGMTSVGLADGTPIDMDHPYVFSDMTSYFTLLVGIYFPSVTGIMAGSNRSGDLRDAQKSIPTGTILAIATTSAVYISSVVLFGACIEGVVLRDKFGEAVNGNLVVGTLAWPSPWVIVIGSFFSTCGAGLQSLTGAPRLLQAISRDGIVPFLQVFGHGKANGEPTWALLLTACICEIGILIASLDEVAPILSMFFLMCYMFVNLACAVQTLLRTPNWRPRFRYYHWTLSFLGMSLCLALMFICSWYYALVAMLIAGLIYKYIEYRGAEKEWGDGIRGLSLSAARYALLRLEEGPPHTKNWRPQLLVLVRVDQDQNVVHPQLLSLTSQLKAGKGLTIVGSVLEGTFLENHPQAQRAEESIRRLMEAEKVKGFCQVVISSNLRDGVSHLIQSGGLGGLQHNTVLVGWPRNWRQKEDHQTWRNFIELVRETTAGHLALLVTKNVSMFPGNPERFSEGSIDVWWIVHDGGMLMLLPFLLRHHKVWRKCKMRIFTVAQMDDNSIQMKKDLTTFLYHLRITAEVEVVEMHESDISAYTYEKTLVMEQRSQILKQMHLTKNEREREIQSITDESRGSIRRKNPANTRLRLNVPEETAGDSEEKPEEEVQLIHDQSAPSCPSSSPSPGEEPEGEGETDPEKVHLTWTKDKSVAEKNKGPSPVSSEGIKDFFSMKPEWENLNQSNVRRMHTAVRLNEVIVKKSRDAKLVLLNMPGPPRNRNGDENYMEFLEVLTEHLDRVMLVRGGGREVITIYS
Briefly: KCC2 thallium transport FLIPR-based assay (Tl+ influx in HEK293 cells expressing KCC2). In kind it is cell-based. The note with it: 90 min compound incubation at RT, thallium flux at 120 s used to determine EC50. Here is the method: A thallium transport FLIPR-based assay was used to measure the ability of compounds to activate KCC2. KCC2 activity is assessed by measuring KCC2-dependent Tl^+ influx in a KCC2-expressing cell. The assay protocol was based on those described by Delpire et al (Proc Natl Acad Sci USA. 2009 Mar. 31; 106(13): 5383-5388) and Zhang et al (Journal of Biomolecular Screening 15(2): 2010).
KCC2 was synthesised and codon optimised by GeneArt based on the Uniprot sequence Q9H2X9. The final sequence was subcloned into pcDNA3.1.
HEK293 cells were grown in 10 layer cell stacks at 37° C., 5% CO2, in DMEM, 10% fetal calf serum and 2 mM Glutamine. The cells were detached by removing the media and washing the cell stack with 100 ml of PBS. The PBS was removed and 100 ml of 1× TrypLE was added and the cell stack returned to 37° C. for 5 min. The detached cells were then counted in a Vi Cell counter and spun for 10 min at 1250 rpm in a Sorval Legend centrifuge. The cells were diluted down in Maxcyte electroporation buffer at 4× the final concentration and spun as before. The cell pellet was resuspended at 1×10^8/cells per ml and electroporated in a Maxcyte Cl 2.2 bag on a Maxcyte STX machine via the HEK293 programme with 200 ug/ml of plasmid DNA. The cells were then allowed to recover for 30 min before adding to 500 ml of PBS and then counted again on the Vi Cell. The cells were then frozen down in planer controlled rate freeze in 90% complete media, 10% DMSO.
All reagents were dispensed using a Mulitdrop Combi unless stated otherwise. All FluXOR Invitrogen propriety buffer compositions are mentioned in tables below.
HEK293 KCC2 cells were harvested at a density of 3.33×10^5 cells/mL in complete media (DMEM, Sigma, D6546, 10% fetal calf serum and 1% Glutamax) and 30 μL per well seeded into 384-well PDL coated black-clear plates (Corning, 354663). Leave cells at RT for 20 mins to settle before incubating for 48 h at 37° C., 5% CO2. Following incubation, perform three wash steps in HBSS (Sigma, H6648) using a Biotek cell washer with the final aspiration leaving 20 μL HBSS residual volume in each well. A further 20 μL per well of thallium loading dye is then added (1 h, RT, protect from light). 5 μL of test compounds (100 μM top concentration, 1:2 dilutions, 12 point curve) were added using the FLIPR TETRA and incubated at RT for 90 min in the dark. Following compound incubation, the thallium flux response is read on FLIPR TETRA (ex. 515-575 nm) which is initiated by FLIRR TETRA dispensing 5 μL stimulus buffer into each well. Recordings are measured every 1 second for 120 seconds. Thallium flux at 120 s used to determine EC50.
Compound buffer: Assay buffer with 1 μL of bumetanide per 10 ml.
For orientation: EC50 means the concentration needed to bring the measured effect to its halfway point. `CC(C)N1Cc2nc(N3CCO[C@H](C)C3)nc(Nc3ccc(C4CCCCC4)cc3)c2C1` [Example 110, (R)—N-(4-cyclohexylphenyl)-6-isopropyl-2-(2-methylmorpholino)-6,7-dihydro-5H-pyrrolo[3,4-d]pyrimidin-4-amine] returned an EC50 of 7.31 µM.

Molecule `CC(C)N1Cc2c(Nc3ccc(C4CCCCC4)cc3)nc(N3CCCOCC3)nc2C1=O` [Example 24, 4-[(4-cyclohexylphenyl)amino]-2-(1,4-oxazepan-4-yl)-6-(propan-2-yl)-5,6-dihydro-7H-pyrrolo[3,4-d]pyrimidin-7-one] showed an EC50 of 2.92 µM.

Take `CC(C)c1ccc(Nc2nc(N3C[C@H](C)O[C@@H](C)C3)nc3c2CN(C(C)C)C3=O)cc1` [Example 8, 2-[(2S,6S)-2,6-dimethylmorpholin-4-yl]-6-(propan-2-yl)-4-{[4-(propan-2-yl)phenyl]amino}-5,6-dihydro-7H-pyrrolo[3,4-d]pyrimidin-7-one]: the EC50 stood at 5.43 µM.

For the molecule `CC(C)c1ccc(Nc2nc(N3CCOCC3C)nc3c2CN(C(C)C)C3=O)cc1` (stereo not drawn) [Example 9, 2-(3-methylmorpholin-4-yl)-6-(propan-2-yl)-4-{[4-(propan-2-yl)phenyl]amino}-5,6-dihydro-7H-pyrrolo[3,4-d]pyrimidin-7-one], it took 6.14 µM to reach a half-maximal effect (EC50).

The molecule `COc1cc(-c2nc(Nc3ccc(C4CCCCC4)cc3)c3c(n2)C(=O)N(C(C)C)C3)ccn1` [Example 43, 4-[(4-cyclohexylphenyl)amino]-2-(2-methoxypyridin-4-yl)-6-(propan-2-yl)-5,6-dihydro-7H-pyrrolo[3,4-d]pyrimidin-7-one] yielded an EC50 of 0.738 µM.

Regarding `CCN1Cc2c(Nc3ccc(C4CCCCC4)cc3)nc(N3CCO[C@H](C)C3)nc2C1=O` [Example 68, 4-[(4-cyclohexylphenyl)amino]-6-ethyl-2-[(2R)-2-methylmorpholin-4-yl]-5,6-dihydro-7H-pyrrolo[3,4-d]pyrimidin-7-one], the EC50 was determined as 1.94 µM.

Take `CC(C)N1Cc2c(Nc3ccc(C4CCCCC4)cc3)nc(-c3cnn(C)c3)nc2C1=O` [Example 47, 4-[(4-cyclohexylphenyl)amino]-2-(1-methyl-1H-pyrazol-4-yl)-6-(propan-2-yl)-5,6-dihydro-7H-pyrrolo[3,4-d]pyrimidin-7-one]: a half-maximal effect (EC50) was put at 3.16 µM.

In turn, `COC1CCN(c2nc(Nc3ccc(C4CCCCC4)cc3)c3c(n2)C(=O)N(C(C)C)C3)C1` (stereo not drawn) [Example 26, 4-[(4-cyclohexylphenyl)amino]-2-(3-methoxypyrrolidin-1-yl)-6-(propan-2-yl)-5,6-dihydro-7H-pyrrolo[3,4-d]pyrimidin-7-one] showed an EC50 of 3.5 µM.

For the molecule `CC(C)N1Cc2c(Nc3ccc(C4CCCCC4)cc3)nc(N(C)CC3CCCO3)nc2C1=O` (stereo not drawn) [Example 35], the EC50 came to 6.3 µM.

Turning to `CN1CCC(N2Cc3nc(N4CCOC(C5CC5)C4)nc(Nc4ccc(C5CCCCC5)cc4)c3C2)CC1` (stereo not drawn) [Example 112, N-(4-cyclohexylphenyl)-2-(2-cyclopropylmorpholino)-6-(1-methylpiperidin-4-yl)-6,7-dihydro-5H-pyrrolo[3,4-d]pyrimidin-4-amine], a half-maximal response (EC50) required 3.57 µM.

As to `CC(C)c1ccc(Nc2nc(-c3ccncc3)nc3c2CN(C(C)C)C3=O)cc1` [Example 40, 6-isopropyl-4-((4-isopropylphenyl)amino)-2-(pyridin-4-yl)-5,6-dihydro-7H-pyrrolo[3,4-d]pyrimidin-7-one], the EC50 is 6.36 µM.

In the case of `CC(C)N1Cc2c(Nc3ccc(-c4ccccc4)c(F)c3)nc(N3CCOCC3)nc2C1=O` [Example 84, 4-[(2-fluoro[1,1′-biphenyl]-4-yl)amino]-2-(morpholin-4-yl)-6-(propan-2-yl)-5,6-dihydro-7H-pyrrolo[3,4-d]pyrimidin-7-one], the concentration for a half-maximal effect (EC50) was determined as 2.09 µM.

Molecule `CC(C)N1Cc2c(Nc3ccc(C4CCCCC4)cc3)nc(N(C)CC3CC3)nc2C1=O` [Example 30, 4-[(4-cyclohexylphenyl)amino]-2-[(cyclopropylmethyl)(methyl)amino]-6-(propan-2-yl)-5,6-dihydro-7H-pyrrolo[3,4-d]pyrimidin-7-one] came in with an EC50 of 4.05 µM.

The molecule `CC(C)c1ccc(Nc2nc(N3CCOC(C4CC4)C3)nc3c2CN(C(C)C)C3=O)cc1` (stereo not drawn) [Example 10, 2-(2-cyclopropylmorpholin-4-yl)-6-(propan-2-yl)-4-{[4-(propan-2-yl)phenyl]amino}-5,6-dihydro-7H-pyrrolo[3,4-d]pyrimidin-7-one] yielded an EC50 of 2.99 µM.

In turn, `C1=C(c2nc(Nc3ccc(C4CCCCC4)cc3)c3cccnc3n2)CCOC1` [Example 98, N-(4-cyclohexylphenyl)-2-(3,6-dihydro-2H-pyran-4-yl)pyrido[2,3-d]pyrimidin-4-amine] came in with an EC50 of 5.53 µM.

The molecule `C[C@@H]1CN(c2nc(Nc3ccc(C4CCCCC4)cc3)c3cc(Br)cnc3n2)CCO1` [Example 97, 6-bromo-N-(4-cyclohexylphenyl)-2-[(2R)-2-methylmorpholin-4-yl]pyrido[2,3-d]pyrimidin-4-amine] yielded an EC50 of 1.35 µM.

Consider `CCCCCc1ccc(Nc2nc(N3CCO[C@H](C)C3)nc3c2CN(C(C)C)C3=O)cc1` [Example 55, 2-[(2R)-2-methylmorpholin-4-yl]-4-[(4-pentylphenyl)amino]-6-(propan-2-yl)-5,6-dihydro-7H-pyrrolo[3,4-d]pyrimidin-7-one], for which a half-maximal effect (EC50) was put at 2.3 µM.

`CC(C)N1Cc2c(Nc3ccc(C4CCCCC4)cc3)nc(-c3ccncc3)nc2C1=O` [Example 46, 4-[(4-cyclohexylphenyl)amino]-6-(propan-2-yl)-2-(pyridin-4-yl)-5,6-dihydro-7H-pyrrolo[3,4-d]pyrimidin-7-one] yielded an EC50 of 1.29 µM.

As for `CC(C)N1Cc2c(Nc3ccc(C4CCCCC4)cc3)nc(N(C)CCc3ncon3)nc2C1=O` [Example 23, 4-[(4-cyclohexylphenyl)amino]-2-{methyl[2-(1,2,4-oxadiazol-3-yl)ethyl]amino}-6-(propan-2-yl)-5,6-dihydro-7H-pyrrolo[3,4-d]pyrimidin-7-one], the EC50 was found to be 2.92 µM.

`CC(C)c1ccc(Nc2nc(N3C[C@@H](C)O[C@@H](C)C3)nc3c2CN(C(C)C)C3=O)cc1` [Example 4, 2-[(2R,6S)-2,6-dimethylmorpholin-4-yl]-6-(propan-2-yl)-4-{[4-(propan-2-yl)phenyl]amino}-5,6-dihydro-7H-pyrrolo[3,4-d]pyrimidin-7-one] registered an EC50 of 3.76 µM.

As for `CC(C)N1Cc2c(Nc3ccc(C4CCCCC4)cc3)nc(-c3ccnc(C4CC4)c3)nc2C1=O` [Example 42, 4-[(4-cyclohexylphenyl)amino]-2-(2-cyclopropylpyridin-4-yl)-6-(propan-2-yl)-5,6-dihydro-7H-pyrrolo[3,4-d]pyrimidin-7-one], the EC50 stood at 0.633 µM.
